Reference: publication PMC10973839, “CHF6297: a novel potent and selective p38 MAPK inhibitor with robust anti-inflammatory activity and suitable for inhaled pulmonary administration as dry powder” (Frontiers in Pharmacology, 2024)

What was measured:
human p38β (MAPK11) = target: T1, human p38β (MAPK11) (Homo sapiens, UniProt Q15759); test: AlphaScreen kinase activity assay, human p38β; format: biochemical
T1 construct: GST; purchased Invitrogen
Procedure: The inhibitory activity of CHF6297 was determined using an AlphaScreen® (PerkinElmer)-based kinase activity assay as previously described ([Armani et al., 2022]). Kinase reactions consisted of 25 mM 4-(2-hydroxyethyl)-1-piperazine ethanesulfonic acid (HEPES), pH 7.5; 10 mM MgCl2; 100 μM Na3VO4; 2 mM DTT; 0.05 mg/mL Tween^TM 20; 100 pM solution of p38α, p38β, p38δ, or p38γ (Invitrogen); 1% DMSO; and 0.3 μg/mL ATF-2 fusion protein (New England Biolabs). Compounds were incubated under these conditions for 2 h, at 25°C, prior to the initiation of kinase activity by the addition of 250 μM ATP. […] Detection was performed by measuring luminescence following the addition of AlphaScreen donor beads (PerkinElmer, 6765300) and Protein A AlphaScreen acceptor beads (PerkinElmer, 6760137), both at a final concentration of 20 μg/mL. IC50 values were determined from concentration–response curves. […]
CHF6297 was tested in biochemical enzymatic assays to determine its potency as an inhibitor of human p38α (MAPK14) and of the other human p38 isoforms, p38β (MAPK11), p38γ ([…]), and p38δ ([…]) ([Armani et al., 2022]). Activity in the primary screening assay was determined using AlphaScreen technology, in which a peptide (ATF2) is phosphorylated by the appropriate GST-tagged p38 protein isoform in the presence of CHF6297 at concentrations from semi-logarithmic dilutions. […]

human p38δ = target: T2, human p38δ (Homo sapiens, UniProt O15264); test: KINOMEscan competition binding assay (DiscoverX), p38δ; conditions: read-out: Kd (mean ± s.d.)
T2 construct: GST; purchased Invitrogen
T2 sequence (O15264 1-365): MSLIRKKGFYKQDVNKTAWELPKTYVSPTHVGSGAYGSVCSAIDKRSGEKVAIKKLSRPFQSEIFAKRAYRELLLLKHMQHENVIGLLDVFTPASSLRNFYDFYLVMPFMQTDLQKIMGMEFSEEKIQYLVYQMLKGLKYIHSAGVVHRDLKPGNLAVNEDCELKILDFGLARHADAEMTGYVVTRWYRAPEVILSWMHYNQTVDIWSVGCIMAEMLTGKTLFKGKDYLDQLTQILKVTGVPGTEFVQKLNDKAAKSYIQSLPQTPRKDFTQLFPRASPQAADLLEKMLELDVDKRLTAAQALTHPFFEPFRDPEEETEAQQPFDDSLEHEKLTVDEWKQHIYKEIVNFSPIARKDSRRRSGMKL
From the text: The KINOMEscan® platform (DiscoverX) was used, which uses a novel and proprietary active site-directed competition binding assay to quantitatively measure the interactions between human p38 isoforms and the target compound.

[1] = test system: TS-induced neutrophil influx in BALF; test: BALF neutrophilia induced by tobacco smoke exposure in mice; format: in vivo, C57BL6J female mice; conditions: for neutrophils in BALF: 4 days TS exposure
Procedure: C57BL6J female mice aged 9–10 weeks (Harlan Laboratories S.r.l) in groups of 8 were exposed, via whole-body inhalation, twice daily 1 h apart, for 4 consecutive days, to the tobacco smoke (TS) (generated using “Marlboro Gold: 9 mg of tar and 0.7 mg nicotine”) of two cigarettes/exposure on days 1 and 2, three cigarettes/exposure on day 3, and four cigarettes/exposure on the last exposure day in clear polycarbonate chambers (27 cm × 16 cm × 12 cm). The smoke was introduced into the exposure chambers (21100-790 Ugo Basile, Biological Research Instruments, Comerio, Varese, Italy), with the airflow generated by using a mechanical ventilator (7025 Rodent Ventilator, Ugo Basile). Each exposure chamber was connected to a different ventilator set at a rate of 100 mL/min (frequency: 50 strokes/min; volume: 2 mL/stroke). At regular intervals (after burning two cigarettes), the exposure chambers were opened and aired. Sham and control mice were exposed to air only in the same manner for the same duration of time.
CHF6297 (0.03 and 0.3 mg/kg) and budesonide (0.3 mg/kg), our reference compound and vehicle (0.2% Tween 80 in saline), respectively, were administered intranasally in a volume of 30 µL, 1 h before and 5 h after TS exposure under light isoflurane anesthesia.
A BAL was performed using a volume of 0.6 mL of phosphate-buffered saline that was gently instilled and withdrawn three times using a 12-mL syringe. BALF cells were separated by centrifugation (10 min at 3,070 g), and the supernatant was removed. The resulting cell pellet was resuspended in a known volume of PBS, and the total cell numbers were calculated by counting a stained (Turk’s stain) aliquot under a microscope using a hemacytometer. The cell pellet was resuspended to approximately 10^5 cells per ml, and cytospin slides were prepared by centrifugation (8 min at 72.26 g; Shandon Cytospin; Thermo Shandon Ltd., Runcorn, Cheshire, United Kingdom). The slides were air-dried and stained using Wright–Giemsa stain, following the manufacturer’s instructions. A differential cell count was performed using light microscopy. Approximately 400 cells were counted from each slide. The cells were identified using standard morphometric techniques.

[2] = test system: IAV-induced airway neutrophilia in HDM-challenged mice; test: Influenza virus A (H3N2)-induced exacerbation in HDM-sensitized mice; format: in vivo, Balb/c mice
[3] = test system: i.v. LPS-induced TNF-α in blood; test: Intravenous LPS-induced TNF-α release in rat blood; format: in vivo, rats; conditions: 0.3 mg/kg lactose-blended dry powder via inhalation, 2 h before i.v. LPS (0.3 mg/kg)
[4] = test system: LPS-induced neutrophil influx in BALF; test: LPS-induced BALF neutrophilia in rats
Procedure: For intratracheal (i.t.) administration of LPS or IL-1β, animals were anesthetized with sevoflurane (4% in oxygen), and a laryngoscope was moved forward into the mouth to visualize the trachea and guide the insertion of a fine-tipped PE 100 tube (air-jet delivery system) directly into the trachea and located 1–2 mm above the carina bifurcation. LPS or IL-1β at a concentration of 5 μg/kg and 0.3 μg/kg, respectively, was prepared as a saline solution in a 0.5 mL/kg volume and was blown into the airways during the spontaneous inspiration phase in an air volume of 2 mL.
Each dose group was allocated to a separate system, and each system was housed in an individual ventilated hood.
Powder generation: Compound and vehicle blends were compressed into canisters by using a hydraulic press at 50 bar to prepare a stable “tablet” and ensure a uniform pack density. The Wright Dust Feeder (WDF) comprised an electric motor, gears, a scraper blade, air entry, and a final jet and baffle array. The scraper blade scraped off a fine layer of powder, driven by the motor, and the output speed was determined by the configuration of the gears. The scraped powder was then blown out of the dust feed at its base through a jet which focused the powder stream at a baffle, thus reducing aggregation and producing a fine particulate. The WDF was attached to an aerosol conditioning pre-chamber for the delivery of the powder to the inhalation tower. The generation of the powder was monitored throughout the exposure periods either visually or electronically with a dust monitor.
Inhalation tower: The nose-only inhalation tower was a modular apparatus of anodized aluminum comprising a base unit, two animal sections, and a top section, connected to an earth lead to prevent the formation of any static build-up. During the exposures, the rats were held in restraining tubes, with their snouts protruding into the exposure chamber (see Supplementary Material, Figure 1). The rate of airflow through the WDF was 19 L/min, and that of the exhaust airflow was 20 L/min (vehicle, 0.1 and 1 mg/kg doses) or 40 L/min (0.03 mg/kg doses). The air supply and extract were monitored using in-line flowmeters and recorded manually.
The inhaled dose was derived using the following equation ([Alexander et al., 2008]): delivered dose (μg/kg) = (Conc. × RMV × D)/BW, where Conc. = concentration of CHF-6297 in the air inhaled (µg/L); RMV = volume of air inhaled in 1 min (L/min) 0.608 × BW (kg) 0.852; D = duration of exposure to the aerosol (min); and BW = body weight (kg).
Animals were dosed either 1 h (dose–response curve) or 24 h (duration of action) before LPS challenge. Four hours after endotoxin challenge or saline injection, bronchoalveolar lavage fluid (BALF) was collected for cell counting.
Animals were anesthetized with sevoflurane (4% in oxygen) and euthanized by bleeding from the abdominal aorta. BALF was obtained by gently washing the lungs with three aliquots (4 mL each) of 100 mL of solution A [Hank’s balanced salt solution (HBSS) × 10; 100 mL of 100 mM EDTA; 10 mL of 1 mM HEPES; and 790 mL of distilled water]. […] The resulting BALF was centrifuged at 800 × g for 10 min at 4°C. […] The cell count per animal was calculated from the number of cells for 1 µL of BALF multiplied by the volume used for the resuspension of the cell pellet.

T1 sequence (Q15759 whole entry): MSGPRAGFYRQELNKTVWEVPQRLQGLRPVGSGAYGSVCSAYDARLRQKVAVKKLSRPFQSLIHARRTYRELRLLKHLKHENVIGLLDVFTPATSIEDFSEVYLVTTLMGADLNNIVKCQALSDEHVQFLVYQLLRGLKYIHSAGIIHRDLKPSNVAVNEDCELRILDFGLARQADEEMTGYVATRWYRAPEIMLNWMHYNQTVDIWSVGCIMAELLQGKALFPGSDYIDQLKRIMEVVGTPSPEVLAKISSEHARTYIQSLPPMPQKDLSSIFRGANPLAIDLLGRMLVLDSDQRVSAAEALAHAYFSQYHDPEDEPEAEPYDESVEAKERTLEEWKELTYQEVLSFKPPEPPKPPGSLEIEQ

## C[C@H]1CCCCN1c1nnc2ccc(O[C@@H]3CC[C@H](NC(=O)Nc4cc(C(C)(C)C)nn4-c4cnn(CCN(C)C)c4)c4ccccc43)cn12 [CHF6297]
Human p38β (MAPK11)
  IC50 fold-difference vs. human p38α: 1.4
Human p38β (MAPK11); n = 3, read-out: IC50 (mean ± s.d.)
  IC50: 0.2 ± 0.017 nM
Human p38δ
  Kd: > 1000 nM
[1]; 0.03 mg/kg i.n., 1 h before and 5 h after TS
  % of inhibition of neutrophil recruitment: 29.7 ± 15.3%
[1]; 0.03 mg/kg i.n.
  neutrophils in BALF: 0.4 ± 0.1 × 10^5 cells/mL
[1]; 0.3 mg/kg i.n., 1 h before and 5 h after TS
  % inhibition of neutrophilia: 62.0 ± 8.4%
[1]; 0.3 mg/kg i.n.
  neutrophils in BALF: 0.2 ± 0.1 × 10^5 cells/mL
[2]; 30 μg/kg i.n. twice daily for 3 days
  neutrophils in BAL fluid: 2.78 ± 0.28 × 10^5 cells/mL
[2]; 100 μg/kg twice daily for 3 days
  neutrophils in BAL fluid: 1.29 ± 0.119 × 10^5 cells/mL
[3]
  effect on TNF-α levels in blood: no significant inhibition of TNF-α levels
[4]; 0.1 mg/kg nose-only dry powder, 1 h before LPS, BALF 4 h after challenge
  neutrophils in BALF: 1.18 × 10^6 ± 0.27 × 10^6 neutrophils
[4]; 0.1 mg/kg nose-only dry powder, 24 h before LPS
  neutrophils in BALF: 1.9 × 10^6 ± 0.3 × 10^6 neutrophils
[4]; 1 mg/kg nose-only dry powder, 1 h before LPS, BALF 4 h after challenge
  neutrophils in BALF: 0.7 × 10^6 ± 0.12 × 10^6 neutrophils
[4]; 1 mg/kg nose-only dry powder, 24 h before LPS
  neutrophils in BALF: 1.45 × 10^6 ± 0.19 × 10^6 neutrophils
[4]; Rattus norvegicus, Neutrophil, read-out: ED50, inhibition of pulmonary neutrophilia
  ED50: 0.064 mg/kg
